# In patent publication US20250145608A1, “KRAS DEGRADING COMPOUNDS COMPRISING ANNULATED 2-AMINO-3-CYANO THIOPHENES” (Boehringer Ingelheim Int'l GmbH Corp., priority 2021, published 2025):
# Like-named read-outs stand apart in the source and are kept apart here.
# Assays:
# Assay type in all cases: cell-based
# KRAS(G12D) = target: T1, KRAS(G12D) (Homo sapiens, UniProt P01116, G12D); assay: HiBit degradation assay in GP5d-HiBit-KRAS(G12D) cells (18 h; DC50, Dmax)
# T1 construct: introduced immediately downstream of the initiating Methionine codon of the endogenous KRAS locus; host or cells: GP5d-HiBit-KRAS(G12D), a CRISPR knock-in at the endogenous locus
# T1 sequence (P01116 1-188 isoform P01116-2 G12D): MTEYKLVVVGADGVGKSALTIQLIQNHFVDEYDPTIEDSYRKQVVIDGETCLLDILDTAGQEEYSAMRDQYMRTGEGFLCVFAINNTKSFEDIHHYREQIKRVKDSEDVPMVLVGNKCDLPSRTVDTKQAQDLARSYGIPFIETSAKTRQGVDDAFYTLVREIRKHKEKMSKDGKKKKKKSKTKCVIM
# How it was run: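 GP5d cells carry an endogenous N-terminal HiBit tag on KRAS(G12D), knocked in by CRISPR. They were seeded overnight in DMEM/10% FCS, exposed to compound for 18 h at 37° C, then lysed for HiBit luminescence, normalised to DMSO. DC50 comes from a four-parameter logistic fit; Dmax is maximal degradation as % of control.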
# NCI-H358 cells = assay: NCI-H358 CTG proliferation assay (120 h) (NSCLC, G12C); conditions: Homo sapiens
# How it was run: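 IC50 values derive from four-parameter nonlinear regression of CellTiter-Glo viability (RLU relative to DMSO wells) after 120 h of exposure. Cells were plated in RPMI-1640 + 10% FCS at 2000 per well (assay 1) or 200 per well (assay 2). Untreated cells were measured at compound addition as T0.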
# GP5d cells = assay: GP5d cell proliferation assay (colorectal cancer, G12D), 5 days; conditions: Homo sapiens, 120 h
# Protocol: GP5d Cell Proliferation Assay (Colorectal Cancer, G12D)
# (§1) GP5d cells (ECACC 95090715) are dispensed into white bottom opaque 96 well plates at a density of 5000 cells per well in 100 μL DMEM (BioWhittaker, Cat #BE12-605F) supplemented with 10% FCS. […] Compounds (10 mM stock in DMSO) are added at logarithmic dose series using the HP Digital Dispenser D300 (Tecan), normalizing for added DMSO. For the TO time point measurement, untreated cells are analysed at the time of compound addition. Plates are incubated for 5 days, and cell viability is measured using CellTiter-Glo luminescent cell viability reagent (Promega, Cat. No G7570). Viability (stated as percent of control) is defined as relative luminescence units RLU of each well divided by the RLU of cells in DMSO controls. IC50 values were computed from relative viability values using a four parametric logistic model.
# KRAS4B G12D = target: T2, KRAS4B G12D (Homo sapiens, UniProt P01116, G12D); assay: HiBit KRAS4B mutant spectrum degradation assay, KRAS4B G12D in GP5d cells (18 h); conditions: KRAS mutation G12D
# T2 construct: HiBit; expressed in transfected cells; host or cells: GP5d cells (ECACC 95090715), stably transduced with lentivirus, CMV promoter
# T2 sequence (P01116 1-188 isoform P01116-2 G12D): as above
# Description: (§2) The therapeutically relevant mutant KRAS constructs (WT, G12C, G12D, G12V, G13D) were obtained by site directed mutagenesis using a KRAS4B WT cDNA construct as a template. GP5d cells (ECACC Cat. No. 95090715) were transduced with lentiviral vectors expressing mutant KRAS4B cDNA under control of a CMV promoter. Stably transduced cells were selected using a neomycin selectable marker encoded on the construct.
# (§3) To assess PROTAC-mediated degradation of various KRAS mutants, GP5d cells stably transduced with KRAS4B constructs as described above were seeded at 25000 cells per well in 100 μL Dulbecco's Modified Eagle medium (Sigma cat. no. D6429) supplemented with 10% fetal calf serum into white bottom opaque 96 well plates (Perkin Elmer cat no. 5680). Plates were incubated at 37° C., 5% CO2 in a humidified incubator over night to allow the cells to adhere. […] Plates were further incubated at 37° C. for 18 hours. Following incubation, 100 μL per well Promega Nano-Glo HiBit lytic detection reagent mix (Promega Nano-Glo HiBit Lytic Detection System #N3050), prepared according to the manufacturer's instructions in the kit, were added. To allow for adequate cell lysis, plates were incubated on an orbital shaker for 15 min and further incubated 30 min at room temperature. Upon completion of cell lysis, luminescence was measured using an Envision plate reader using the Ultrasensitive Luminescence Protocol for 96 well plates. Luminescence levels were normalized by the values obtained with DMSO-treated samples and plotted as percent of DMSO control. DC50 values were computed using a four parametric logistic model and are reported in nM in Table 65 for representative example (Ex.) compounds of the invention. Dmax values represent the maximal extent of degradation observed and is stated as percent of control (% Ctrl.) treatments in Table 66 for representative example (Ex.) compounds of the invention.
# SW620 cells = assay: SW620 cell proliferation assay (colorectal cancer, G12V), 5 days; conditions: Homo sapiens, SW-620, 120 h
# Protocol: SW620 Cell Proliferation Assay (Colorectal Cancer, G12V)
# as §1, with “SW620” for “GP5d”, “(ATCC CCL-227)” for “(ECACC 95090715)”, “plates (Perkin Elmer cat no. 5680)” for “plates”, “2000” for “5000”
# KRAS4B G12V = target: T3, KRAS4B G12V (Homo sapiens, UniProt P01116, G12V); assay: HiBit KRAS4B mutant spectrum degradation assay, KRAS4B G12V in GP5d cells (18 h); conditions: KRAS mutation G12V
# T3 construct: HiBit; expressed in transfected cells; host or cells: GP5d cells (ECACC 95090715), stably transduced with lentivirus, CMV promoter
# T3 sequence (P01116 1-188 isoform P01116-2 G12V): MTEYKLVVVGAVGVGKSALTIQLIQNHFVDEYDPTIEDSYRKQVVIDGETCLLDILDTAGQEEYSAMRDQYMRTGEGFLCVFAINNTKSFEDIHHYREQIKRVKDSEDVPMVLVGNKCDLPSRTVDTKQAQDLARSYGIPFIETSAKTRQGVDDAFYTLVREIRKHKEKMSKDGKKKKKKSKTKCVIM
# Description: as §2, §3
# KRAS4B WT = target: T4, KRAS4B WT (Homo sapiens, UniProt P01116); assay: HiBit KRAS4B mutant spectrum degradation assay, KRAS4B WT in GP5d cells (18 h); conditions: KRAS mutation G12WT
# T4 construct: HiBit; expressed in transfected cells; host or cells: GP5d cells (ECACC 95090715), stably transduced with lentivirus, CMV promoter
# T4 sequence (P01116 1-188 isoform P01116-2): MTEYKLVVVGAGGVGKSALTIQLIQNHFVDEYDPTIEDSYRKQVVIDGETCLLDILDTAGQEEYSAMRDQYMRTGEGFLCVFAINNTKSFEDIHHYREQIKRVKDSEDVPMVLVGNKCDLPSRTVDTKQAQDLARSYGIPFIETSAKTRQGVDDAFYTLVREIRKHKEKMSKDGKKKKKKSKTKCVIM
# Description: as §2, §3
# KRAS4B G13D = target: T5, KRAS4B G13D (Homo sapiens, UniProt P01116, G13D); assay: HiBit KRAS4B mutant spectrum degradation assay, KRAS4B G13D in GP5d cells (18 h); conditions: KRAS mutation G13D
# T5 construct: HiBit; expressed in transfected cells; host or cells: GP5d cells (ECACC 95090715), stably transduced with lentivirus, CMV promoter
# T5 sequence (P01116 1-188 isoform P01116-2 G13D): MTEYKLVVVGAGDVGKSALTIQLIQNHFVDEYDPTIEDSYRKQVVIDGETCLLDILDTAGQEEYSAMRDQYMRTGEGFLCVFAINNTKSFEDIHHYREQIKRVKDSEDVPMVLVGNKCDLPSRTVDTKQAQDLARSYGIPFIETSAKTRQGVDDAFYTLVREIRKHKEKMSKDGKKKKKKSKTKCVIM
# Description: as §2, §3
smiles,measurement,setting,value
Cc1ncsc1-c1ccc(CNC(=O)[C@@H]2C[C@@H](O)CN2C(=O)[C@@H](NC(=O)CCCCCN2CCCN(c3nccc(-c4noc([C@@]5(C)CCCc6sc(N)c(C#N)c65)n4)n3)[C@@H](C)C2)C(C)(C)C)cc1 [I-47],DC50,KRAS(G12D),47.7 nM
same,Dmax 18 h,KRAS(G12D),94 % Ctrl
same,IC50,"NCI-H358 cells; assay 1, read-out: H358 (assay 1) IC50",2500 nM
same,IC50,"NCI-H358 cells; assay 2, read-out: H358 (assay 2) IC50",168 nM
same,IC50,GP5d cells,141 nM
same,DC50,KRAS4B G12D,48 nM
same,Dmax at 18 h,KRAS4B G12D,94 % Ctrl.
same,IC50,SW620 cells,280 nM
same,DC50,KRAS4B G12V,98.8 nM
same,Dmax at 18 h,KRAS4B G12V,90 % Ctrl.
same,DC50,KRAS4B WT,36.2 nM
same,Dmax at 18 h,KRAS4B WT,95.4 % Ctrl.
same,DC50,KRAS4B G13D,44.9 nM
same,Dmax at 18 h,KRAS4B G13D,90 % Ctrl.
